Key:
Format in all cases: cell-based
MKN45 = assay: Cell viability (CellTiter-Blue, 72 h), MKN45 gastric cancer cells; conditions: MKN45, 1% FBS, 72 h; read-out: Cell line IC50 value
Protocol: (§1) The following cell lines were tested in this example: Lung Cancer (A549, NCI-H460); Pancreatic cancer (PANC1, Mia-Pa-Ca-2); Melanoma (WM115, A375); Ovarian cancer (OVCAR3, SKOV3); Gastric cancer (MKN45, HGC-27); Renal cancer (ACHN) and Bladder Cancer (RT112).
(§2) Each tumour cell line was maintained in vitro in RPMI 1640+10% heat inactivated FBS and 2 mM L-glutamine (growth media) at 37° C. in 5% CO2 and humidified conditions. The cells were harvested, washed, re-suspended into growth medium and counted. The cells were re-suspended into assay media (RPMI 1640+5% heat inactivated FBS+ and 2 mM L-glutamine) at 4×10^4 cells/ml (dependent upon cell type) and plated into the middle 240 wells of 384 well tissue culture plates (Corning CellBind, black-wall plates) 25 μl/well aliquots; 50 μl of growth media was aliquoted into the outer wells. There were 3 plates for each cell line.
(§3) The plates were incubated overnight at 37° C., in 5% humidified CO2.
(§4) The phytocannabinoid test compounds were prepared in 100% DMSO vehicle at a stock concentration of 20 and 40 mM.
(§5) Starting with the 20 mM stock in DMSO, this was serially diluted (2 fold) in DMSO in a 96-well plate, to 20 (no dilution), 10, 5, 2.5, 1.25, 0.625, 0.315, 0.157 and […]. Following this, 10 ul of each compound dilution was diluted into 990 ul of 1% (v/v) FBS media in a deep well block making the final concentrations of 200, 100, 50, 25, 12.5, 6.25, 3.125, 1.56 and 0.79 μM (2× final assay concentrations and 1% DMSO).
(§6) An equal volume of each cannabinoid in the combination (stock concentration 40 mM) was mixed together to make a stock of 20 mM of each cannabinoid in DMSO. This was serially diluted (2 fold) in DMSO in a 96-well plate, to 20 (no dilution), 10, 5, 2.5, 1.25, 0.625, 0.315, 0.157 and […]. Following this, 10 ul of each combination dilution was diluted into 990 ul of 1% (v/v) FBS media in a deep well block making the final concentrations of 200, 100, 50, 25, 12.5, 6.25, 3.125, 1.56 and 0.79 μM (2× final assay concentrations and 1% DMSO).
(§7) Cisplatin (stock of 1 mg/ml=3.33 mM in water) was diluted in 1% FBS media to give a stock concentration of 1 mM. This was then diluted in 1% FBS media from the stock solution to 200 μM, then serially diluted (3-fold) in 1% FBS media to 200 (no dilution), 66.66, 22.22, 7.41, 2.47, 0.82, 0.27, 0.09, 0.03 μM (2× final assay concentrations; no DMSO).
(§8) The plates were incubated for 72 h at 37° C. in 5% humidified CO2. To develop the plates, at 72 h, 10 μl of CellTiter-Blue™ reagent was added to each test/blank well.
(§9) The plates were incubated at 37° C., 5% humidified CO2. Fluorescence was measured using a Flex II Station plate reader (570 nm excitation wavelength, 600 nm emission wavelength, 590 nm cut-off) after 3 h.
(§10) The phytocannabinoid compounds CBD, CBGA, CBG, CBDA, THCV and THC were tested on a panel of lung (A549, NCI-H460), pancreatic (PANC1, Mia-Pa-Ca-2), melanoma (WM115, A375), ovarian (OVCAR3, SKOV3), gastric (MKN45, HGC-27), renal (ACHN) and bladder (RT112) cancer cell lines according to the protocol for 72 h in media containing 1% FBS.
(§11) The IC50 values for each phytocannabinoid and combination of CBD with the other phytocannabinoids was calculated for each cell line. The raw data values expressed in relative fluorescent units were normalised to the vehicle for each individual plate and any reduction in fluorescence indicated a decrease in viability.
(§12) This calculation was as described in Example 1 above.

RT112 = assay: Cell viability (CellTiter-Blue, 72 h), RT112 bladder cancer cells; conditions: RT112, 1% FBS, 72 h; read-out: Cell line IC50 value
Protocol: as §1, §2, §3, §4, §5, §6, §7, §8, §9, §10, §11, §12

A375 = assay: Cell viability (CellTiter-Blue, 72 h), A375 melanoma cells; conditions: A375, 1% FBS, 72 h; read-out: Cell line IC50 value
Protocol: as §1, §2, §3, §4, §5, §6, §7, §8, §9, §10, §11, §12

WM115 = assay: Cell viability (CellTiter-Blue, 72 h), WM115 melanoma cells; conditions: WM115, 1% FBS, 72 h; read-out: Cell line IC50 value
Protocol: as §1, §2, §3, §4, §5, §6, §7, §8, §9, §10, §11, §12

OVCAR3 = assay: Cell viability (CellTiter-Blue, 72 h), OVCAR3 ovarian cancer cells; conditions: OVCAR3, 1% FBS, 72 h; read-out: Cell line IC50 value
Protocol: as §1, §2, §3, §4, §5, §6, §7, §8, §9, §10, §11, §12

SKOV3 = assay: Cell viability (CellTiter-Blue, 72 h), SKOV3 ovarian cancer cells; conditions: SKOV3, 1% FBS, 72 h; read-out: Cell line IC50 value
Protocol: as §1, §2, §3, §4, §5, §6, §7, §8, §9, §10, §11, §12

HGC-27 = assay: Cell viability (CellTiter-Blue, 72 h), HGC-27 gastric cancer cells; conditions: HGC-27, 1% FBS, 72 h; read-out: Cell line IC50 value
Protocol: as §1, §2, §3, §4, §5, §6, §7, §8, §9, §10, §11, §12

Mia-Pa-Ca-2 = assay: Cell viability (CellTiter-Blue, 72 h), Mia-Pa-Ca-2 pancreatic cancer cells; conditions: Homo sapiens, MIA PaCa-2, 72 h, read-out: Cell line IC50 value
Protocol: as §1, §2, §3, §4, §5, §6
(§13) Gemcitabine SOC was prepared in 100% DMSO to give a stock concentration of 20 mM. This was then serially diluted (3 fold) in DMSO in a 96-well plate, to 20 (no dilution), 6.6, 2.2, 0.741, 0.247, 0.082, 0.027, 0.009 and 0.003 mM. Following this, 10 ul of each dilution was further diluted into 990 ul of 1% (v/v) FBS media making the final concentrations of 200 (no dilution), 66.66, 22.22, 7.41, 2.47, 0.82, 0.27, 0.09, 0.03 μM (2× final assay concentrations and 1% DMSO).
as §8, §9, §10, §11, §12

PANC-1 = assay: Cell viability (CellTiter-Blue, 72 h), PANC-1 pancreatic cancer cells; conditions: Homo sapiens; PANC-1, 1% FBS, 72 h; read-out: Cell line IC50 value
Protocol: as §1, §2, §3, §4, §5, §6, §13, §8, §9, §10, §11, §12

Compound	IC50 (MKN45) [µM]	IC50 (RT112) [µM]	IC50 (A375) [µM]	IC50 (WM115) [µM]	IC50 (OVCAR3) [µM]	IC50 (SKOV3) [µM]	IC50 (HGC-27) [µM]	IC50 (Mia-Pa-Ca-2) [µM]	IC50 (PANC-1) [µM]
N.N.[Cl][Pt][Cl] [Cisplatin, reference compound]	9.7	27	6.3	35	7.7	4.5	47		
Nc1ccn([C@@H]2O[C@H](CO)[C@@H](O)C2(F)F)c(=O)n1 [Gemcitabine, reference compound]								> 100	> 100

— patent US9962341B2, “Active pharmaceutical ingredient (API) comprising cannabinoids for use in the treatment of cancer” (GW Pharma Limited, priority 2014, dated 2018)
